# Laboratory results as given in patent US7151105B2, “Inhibitors of Hepatitis C virus RNA-dependent RNA polymerase, and compositions and treatments using the same” (Agouron Pharmaceuticals, Inc., priority 2004, dated 2006).
# Molecular target: T1, Recombinant HCV polymerase (Hepatitis C virus genotype 1b, UniProt P26663)
# T1 construct: Recombinant HCV polymerase was tested for its ability to perform primer/template-directed transcription
# Assay: biochemical
# Conditions: inhibition of polymerase-directed transcription; 30 min at 30° C; 30 nM enzyme; cpm data in triplicate
# Outline: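 Primer/template-directed RNA synthesis by 2.5 pmol HCV polymerase on poly(rC)300/biotin-dG12 with 1 μM GTP plus α-32P-GTP, in pH 7.2 Tris buffer with 10 mM MgCl2, for 30 min at 30 °C. Products were filter-captured and counted, with 1% DMSO final. IC50 was fitted from triplicate cpm; percent inhibition was reported where IC50 was impractical.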
# T1 sequence (P26663 2420-3010): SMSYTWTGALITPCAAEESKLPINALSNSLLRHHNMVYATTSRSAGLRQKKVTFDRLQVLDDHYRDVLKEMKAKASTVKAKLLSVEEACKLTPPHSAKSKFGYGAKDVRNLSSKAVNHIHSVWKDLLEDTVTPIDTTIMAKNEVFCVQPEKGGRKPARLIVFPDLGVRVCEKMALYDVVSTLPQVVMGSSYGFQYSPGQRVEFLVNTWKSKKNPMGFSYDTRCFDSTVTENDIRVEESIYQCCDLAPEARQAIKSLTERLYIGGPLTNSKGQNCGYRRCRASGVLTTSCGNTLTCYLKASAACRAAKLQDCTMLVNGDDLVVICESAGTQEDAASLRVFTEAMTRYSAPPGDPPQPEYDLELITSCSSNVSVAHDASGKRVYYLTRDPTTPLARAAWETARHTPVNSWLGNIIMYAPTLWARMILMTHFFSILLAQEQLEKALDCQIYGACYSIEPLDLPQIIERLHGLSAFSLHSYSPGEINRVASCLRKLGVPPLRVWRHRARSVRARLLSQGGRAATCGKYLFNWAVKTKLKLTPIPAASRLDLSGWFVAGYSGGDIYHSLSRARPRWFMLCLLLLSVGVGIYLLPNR
row,Compound,IC50 [nM]
1,"CCc1cc(CCC2(C3CCCC3)CC(O)=C(Cc3nc4nc(C)cc(C)n4n3)C(=O)O2)ccc1CCCOC (stereo not shown) [A(20), 6-Cyclopentyl-3-[(5,7-dimethyl[1,2,4]triazolo[1,5-a]pyrimidin-2-yl)methyl]=6-{2-[3-ethyl-4-(3-methoxypropyl)phenyl]ethyl} -4-hydroxy-5,6-dihydro-2H-pyran-2-one]",9
2,"O=C1CC(=O)OC(CCc2ccc(S(=O)(=O)C(F)(F)F)cc2)(C2CCCC2)C1 (stereo not shown) [A(66), 6-Cyclopentyl-6-(2-{4[(trifluoromethyl)sulfonyl]phenyl}ethyl)dihydro-2H-pyran-2,4(3H)-dione]",31000
3,"CCc1cc(CCC2(C3CCCC3)CC(O)=C(Cc3nc4nc(C)cc(C)n4n3)C(=O)O2)ccc1CC#N (stereo not shown) [A(101), [4-(2-{2-Cyclopentyl-5-[(5,7-dimethyl[1,2,4]triazolo[1,5-a]pyrimidin-2-yl)methyl]-4-hydroxy-6-oxo-3,6-dihydro-2H-pyran-2-yl}ethyl)-2-ethylphenyl]acetonitrile]",8
4,"Cc1cc(C)n2nc(CC3=C(O)CC(CCc4cc(CC(F)(F)F)nc(CC(F)(F)F)c4)(C4CCCC4)OC3=O)nc2n1 (stereo not shown) [A(9), 6-{2-[2,6-Bis(2,2,2-trifluoroethyl)pyridin-4-yl]ethyl}-6-cyclopentyl-3-[(5,7-dimethyl[1,2,4]triazolo[1,5-a]pyrimidin-2-yl)methyl]-4-hydroxy-5,6-dihydro-2H-pyran-2-one]",5
5,"CCc1cc(CCC2(C3CCCC3)CC(O)=C(Cc3nc4nc(C)cc(C)n4n3)C(=O)O2)ccc1CN1CCOCC1 (racemic) [A(123), 6-cyclopentyl-3-[(5,7-dimethyl[1,2,4]triazolo[1,5-a]pyrimidin-2-yl)methyl]-6-{2-[3-ethyl-4-(morpholin-4-ylmethyl)phenyl]ethyl}-4-hydroxy-5,6-dihydro-2H-pyran-2-one]",39
6,"CCn1cc(CCC2(C3CCCC3)CC(O)=C(Cc3nc4nc(C)cc(C)n4n3)C(=O)O2)cn1 (stereo not shown) [A(61), 6-Cyclopentyl-3[(5,7-dimethyl[1,2,4]triazolo[1,5-a]pyrimidin-2-yl)methyl]-6-[2-(1-ethyl-1H-pyrazol-4-yl)ethyl]-4-hydroxy-5,6-dihydro-2H-pyran-2-one]",140
7,"Cc1cc(C)n2nc(CC3=C(O)CC(CCc4ccc(S(C)(=O)=O)c(C(F)(F)F)c4)(C4CCCC4)OC3=O)nc2n1 (stereo not shown) [B(4), 6-Cyclopentyl-3-[(5,7-dimethyl[1,2,4]triazolo[1,5-a]pyrimidin-2-yl)methyl]-4-hydroxy-6-{2-[4-(methylsulfonyl)-3-(trifluoromethyl)phenyl]ethyl}-5,6-dihydro-2H-pyran-2-one]",6
8,"CCc1cc(CCC2(C3CCCC3)CC(=O)CC(=O)O2)ccc1-c1ncco1 (stereo not shown) [A(135), 6-Cyclopentyl-6-{2-[3-ethyl-4-(1,3-oxazol-2-yl)phenyl]ethyl}dihydro-2H-pyran-2,4(3H)-dione]",210
9,"Cc1cnc2nc(CC3=C(O)CC(CCc4ccc(C(C)(C)C#N)c(C)c4)(C4CCCC4)OC3=O)nn2c1 (stereo not shown) [A(78), 2-[4-(2-{2-Cyclopentyl-4-hydroxy-5-[(6-methyl[1,2,4]triazolo[1,5-a]pyrimidin-2-yl)methyl]-6-oxo-3,6-dihydro-2H-pyran-2-yl}ethyl)-2-methylphenyl]-2-methylpropanenitrile]",12
10,"Cc1nn(C)c(C)c1CC1=C(O)CC(CCc2ccc(C(C)(C)C#N)c(Cl)c2)(C2CCCC2)OC1=O (stereo not shown) [B(25), 2-[2-Chloro-4-(2-{2-cyclopentyl-4-hydroxy-6-oxo-5-[(1,3,5-trimethyl-1H-pyrazol-4-yl)methyl]-3,6-dihydro-2H-pyran-2-yl}ethyl)phenyl]-2-methylpropanenitrile]",33

# Further compounds by falling IC50, results first:
row,IC50 [nM],Compound
1,8400,"COc1cc(O)c(C(C)=O)cc1CCC1(C2CCCC2)CC(=O)CC(=O)O1 (stereo not shown) [A(99), 6-[2-(5-Acetyl-4-hydroxy-2-methoxyphenyl)ethyl]-6-cyclopentyldihydro-2H-pyran-2,4(3H)-dione]"
2,250,"CCc1cc(CCC2(C3CCCC3)CC(=O)CC(=O)O2)ccc1NS(C)(=O)=O (stereo not shown) [A(105), N-{4-[2-(2-cyclopentyl-4,6-dioxotetrahydro-2H-pyran-2-yl)ethyl]-2-ethylphenyl}methanesulfonamide]"
3,180,"CCc1ccc(=O)n(CCC2(C3CCCC3)CC(O)=C(Cc3nc4nc(C)cc(C)n4n3)C(=O)O2)c1 (stereo not shown) [B(31), 1-(2-{2-Cyclopentyl-5-[(5,7-dimethyl[1,2,4]triazolo[1,5-a]pyrimidin-2-yl)methyl]-4-hydroxy-6-oxo-3,6-dihydro-2H-pyran-2-yl}ethyl)-5-ethylpyridin-2(1H)-one]"
4,72,"Cc1nc(CC2=C(O)CC(CCc3ccc(C(C)(C)C#N)c(F)c3)(C3CCCC3)OC2=O)n(C)n1 (stereo not shown) [A(84), 2-[4-(2-{2-Cyclopentyl-5-[(1,3-dimethyl-1H-1,2,4-triazol-5-yl)methyl]-4-hydroxy-6-oxo-3,6-dihydro-2H-pyran-2-yl}ethyl)-2-fluorophenyl]-2-methylpropanenitrile]"
5,40,"CCn1cc(CC2=C(O)CC(CCc3ccc(C(C)(C)C#N)c(F)c3)(C3CCCC3)OC2=O)c(C)n1 (stereo not shown) [A(95), 2-[4-(2-{2-Cyclopentyl-5-[(1-ethyl-3-methyl-1H-pyrazol-4-yl)methyl]-4-hydroxy-6-oxo-3,6-dihydro-2H-pyran-2-yl}ethyl)-2-fluorophenyl]-2-methylpropanenitrile]"
6,30,CCc1cc(CCC2(C3CCCC3)CC(O)=C(Cc3nc4ncc(C)cn4n3)C(=O)O2)cc(CC)n1 (stereo not shown) [A(36)]
7,12,"CCc1ccc(CCCOC)c(CCC2(C3CCCC3)CC(O)=C(Cc3nc4nc(C)cc(C)n4n3)C(=O)O2)c1 (stereo not shown) [A(19), 6Cyclopentyl-3-[(5,7-dimethyl[1,2,4]triazolo[1,5-a]pyrimidin-2-yl)methyl]-6-{2-[5-ethyl-2-(3-methoxypropyl)phenyl]ethyl}-4-hydroxy-5,6dihydro-2H-pyran-2-one]"
8,10,"CCc1cc(CCC2(C3CCCC3)CC(O)=C(Cc3nc4nc(C)cc(C)n4n3)C(=O)O2)ccc1-c1ncco1 (single isomer, unassigned; enantiomer 1) [A(138), Enantiomer 1 of 6-Cyclopentyl-3-[(5,7-dimethyl[1,2,4]triazolo[1,5-a]pyrimidin-2-yl)methyl]-6-{2-[3-ethyl-4-(1,3-oxazol-2-yl)phenyl]ethyl}-4-hydroxy-5,6-dihydro-2H-pyran-2-one]"
9,9,"CCc1cc(CCC2(C3CCCC3)CC(O)=C(Cc3nc4nc(C)cc(C)n4n3)C(=O)O2)cc(C)n1 (stereo not shown) [A(35), 6-Cyclopentyl-3-[(5,7-dimethyl[1,2,4]triazolo[1,5-a]pyrimidin-2-yl)methyl]-6-[2-(2-ethyl-6-methylpyridin-4-yl)ethyl]-4-hydroxy-5,6-dihydro-2H-pyran-2-one]"
10,6,CCc1cc(CCC2(C3CCCC3)CC(O)=C(Cc3nc4nc(C)cc(C)n4n3)C(=O)O2)ccc1CNS(C)(=O)=O (stereo not shown) [A(128)]
11,6,"COC(=O)c1ccc(CCC2(C3CCCC3)CC(O)=C(Cc3nc4nc(C)cc(C)n4n3)C(=O)O2)cc1Cl (stereo not shown) [B(9), Methyl 2-chloro-4-(2-{2-cyclopentyl-5-[(5,7-dimethyl[1,2,4]triazolo[1,5-a]pyrimidin-2-yl)methyl]-4-hydroxy-6-oxo-3,6-dihydro-2H-pyran-2-yl}ethyl)benzoate]"
12,4,"CCCOc1cnc(CC)cc1CCC1(C2CCCC2)CC(O)=C(Cc2nc3nc(C)cc(C)n3n2)C(=O)O1 (stereo not shown) [A(42), 6-Cyclopentyl-3-[(5,7-dimethyl[1,2,4]triazolo[1,5-a]pyrimidin-2-yl)methyl]-6-[2-(2-ethyl-5propoxypyridin-4-yl)ethyl]-4-hydroxy-5,6-dihydro-2H-pyran-2-one]"
